Nine molecules from PMC12291464, “Modifying Antifungal Peptides as Safe Food Preservatives” (Journal of Agricultural and Food Chemistry, 2025) can be followed below.

Molecules are shown by their SMILES. Converted amounts (≈) assume the structure as drawn. Like-named read-outs stand apart in the source and are kept apart here. Residues, ends and D or L forms follow the SMILES beside them. Bounds are passed on as bounds.

One experiment relates to A. Niger. The following applies: 24 h. As for the experimental part:
(§1) A1163 was grown on potato dextrose agar (PDA) medium at 37 °C for 5 days, and then the conidia were scraped and suspended in PBS with 0.025% (v/v) Tween 20, counted using a hemocytometer, and kept at 4 °C. isolated from peanuts and Pe21 (both kindly provided by Dr. Edward Sionov, ARO, Israel) were grown on PDA medium at 25 °C for 5 days, and then the conidia were scraped and suspended in PBS with 0.025% Tween 20 and kept at 4 °C. RP and methicillin-resistant (MRSA) were grown on LB agar plates, and individual colonies were picked and grown in Mueller–Hinton (MH) broth overnight at 37 °C. was grown on PDA medium at 30 °C, and individual colonies were picked and grown in yeast extract peptone dextrose (YPD) media overnight at 30 °C. All fungal and bacteria strains were maintained at −80 °C in 50% (v/v) glycerol stock.
(§2) For filamentous fungi strains, serial dilutions of 100 μL ranged from 100 to 0.78 μM for each peptide in a 96 well plate using RPMI1640 with 165 μM MOPS. A total of 80 μL of inoculum was suspended with a conidia load of 5 × 10^3 CFU/mL (final density of 2 × 10^3 CFU/mL), and 20 μL of resazurin was diluted in RPMI1640 solution of 0.02% [final concentration of 0.0002% (w/v)]. In the control, 100 μL of treatment was replaced by the same volume with medium, while the negative control was 180 μL of the medium and 20 μL of resazurin solution. Plates were incubated at 37 °C for and 25 °C for and for 24 h. The results were quantified by measuring absorbance at 570 nm with a microplate reader (Tecan). The mean absorbance values were used in subsequent calculations. The growth of resazurin reduction and growth inhibition was calculated using the following normalization: % growth=100−% reduction=abs of test agent−abs of untreated control/abs of reduced resazurin−abs of untreated control The MIC was defined as the lowest concentration of the peptide that inhibited fungal growth by 90%, allowing for only 10% of the normal growth. For bacterial and yeast strains studies, serial dilutions of 100 μL ranged from 100 to 0.78 μM for each peptide in a 96 well plate using MH media for bacteria and YPD for yeast. A total of 100 μL of the microbe in suitable media (5 × 10^5 CFU/mL) was inoculated in each well. In the untreated well (e.g., control), 100 μL of treatment was replaced by the same volume with medium, while in the negative control, media were only without microbes and peptides. After 24 h of incubation at 37 °C for bacteria and 30 °C for yeast, plates were read at 595 nm and MIC was defined as the lowest concentration of peptide that reduced the growth of the microbe to 10% growth.

For another experiment, the system named is A. fumigatus. The following applies: 24 h. As for the experimental part: as §1, §2
The subject of a further experiment is E. coli. As for the experimental part: as §1, §2
Another experiment deals with MRSA. The protocol: as §1, §2
A further experiment deals with P. expansum. The following applies: 24 h. The protocol:
as §1, §2

Setting [1] is: RPMI1640 with MOPS, resazurin, absorbance 570 nm, MIC = lowest concentration inhibiting growth by 90%, average ± SE, 3 biological repeats in triplicates.
[2] abbreviates: MH media, 5 × 10^5 CFU/mL, 24 h at 37 °C, read at 595 nm, MIC = growth reduced to 10%, average ± SE, 3 biological repeats in triplicates.

Turning to `CC[C@H](C)[C@H](NC(=O)[C@H](CCCCN)NC(=O)[C@H](CCCCN)NC(=O)[C@H](Cc1ccccc1)NC(=O)[C@H](CC(C)C)NC(=O)[C@H](CCCCN)NC(=O)[C@@H](N)Cc1ccccc1)C(=O)N[C@@H](CC(C)C)C(=O)N[C@@H](CCCCN)C(=O)N[C@@H](Cc1ccc(O)cc1)C(=O)N[C@@H](CC(C)C)C(N)=O` [BP100 F1K], in the experiment with A. Niger (setting [1]), the “MIC Values, A. Niger” value was 42 ± 8 µM (≈ 60.5 µg/mL). Besides, the “MIC Values, A. fumigatus” value against A. fumigatus (setting [1]) came to 10 ± 2 µM (≈ 14.4 µg/mL). The “MIC Values, E. coli” value in the experiment on E. coli (setting [2]) amounted to 3 ± 1 µM (≈ 4.32 µg/mL). Besides, in the experiment with MRSA (setting [2]), the “MIC Values, MRSA” value amounted to 3 ± 1 µM (≈ 4.32 µg/mL). For the same molecule, the “MIC Values, P. expansum” value in the experiment on P. expansum (setting [1]) was determined as 6 ± 0 µM (≈ 8.64 µg/mL).
`CC[C@H](C)[C@H](N)C(=O)N[C@@H](CCCCN)C(=O)N[C@@H](CC(C)C)C(=O)N[C@@H](Cc1ccccc1)C(=O)N[C@@H](CCCCN)C(=O)N[C@@H](CCCCN)C(=O)N[C@H](C(=O)N[C@@H](CC(C)C)C(=O)N[C@@H](CCCCN)C(=O)N[C@@H](Cc1ccc(O)cc1)C(=O)N[C@@H](CC(C)C)C(N)=O)[C@@H](C)CC` [BP100 I1K]: the “MIC Values, A. Niger” value in the experiment with A. Niger (setting [1]) was found to be 33 ± 8 µM (≈ 46.4 µg/mL). The “MIC Values, A. fumigatus” value with A. fumigatus (setting [1]) was 13 ± 0 µM (≈ 18.3 µg/mL). Also, the “MIC Values, E. coli” value against E. coli (setting [2]) turned out to be 3 ± 1 µM (≈ 4.22 µg/mL). In the experiment on MRSA (setting [2]), the “MIC Values, MRSA” value was determined as 3 ± 0 µM (≈ 4.22 µg/mL). For the same molecule, the “MIC Values, P. expansum” value against P. expansum (setting [1]) was 8 ± 2 µM (≈ 11.2 µg/mL).
For `CC[C@H](C)[C@H](NC(=O)[C@H](CCCCN)NC(=O)[C@H](CCCCN)NC(=O)[C@H](Cc1ccccc1)NC(=O)[C@H](CC(C)C)NC(=O)[C@H](CCCCN)NC(=O)[C@@H](N)CC(C)C)C(=O)N[C@@H](CC(C)C)C(=O)N[C@@H](CCCCN)C(=O)N[C@@H](Cc1ccc(O)cc1)C(=O)N[C@@H](CC(C)C)C(N)=O` [BP100 L1K] the same measures were 33 ± 8 µM (≈ 46.4 µg/mL), 13 ± 0 µM (≈ 18.3 µg/mL), 3 ± 1 µM (≈ 4.22 µg/mL), 3 ± 0 µM (≈ 4.22 µg/mL) and 8 ± 2 µM (≈ 11.2 µg/mL).
For `CC[C@H](C)[C@H](NC(=O)[C@H](CCCCN)NC(=O)[C@H](CCCCN)NC(=O)[C@H](Cc1ccccc1)NC(=O)[C@H](CC(C)C)NC(=O)[C@H](CCCCN)NC(=O)[C@@H](N)CCCCN)C(=O)N[C@@H](CC(C)C)C(=O)N[C@@H](CCCCN)C(=O)N[C@@H](Cc1ccc(O)cc1)C(=O)N[C@@H](CC(C)C)C(N)=O` [BP100, reference compound], in the experiment on A. Niger (setting [1]), the “MIC Values, A. Niger” value was 44 ± 8 µM (≈ 62.5 µg/mL). For the same molecule, the “MIC Values, A. fumigatus” value with A. fumigatus (setting [1]) was 6 ± 0 µM (≈ 8.53 µg/mL). Moreover, the “MIC Values, E. coli” value in the experiment with E. coli was 3 ± 2 µM (≈ 4.26 µg/mL). The “MIC Values, MRSA” value with MRSA was 17 ± 4 µM (≈ 24.2 µg/mL). Moreover, in the experiment on P. expansum (setting [1]), the “MIC Values, P. expansum” value is 13 ± 6 µM (≈ 18.5 µg/mL).
Turning to `C[C@H](N)C(=O)N[C@@H](CCCCN)C(=O)N[C@@H](CCCNC(=N)N)C(=O)N[C@@H](Cc1c[nH]cn1)C(=O)N[C@@H](Cc1c[nH]cn1)C(=O)NCC(=O)N[C@@H](Cc1ccc(O)cc1)C(=O)N[C@@H](CCCCN)C(=O)N[C@@H](CCCNC(=N)N)C(=O)N[C@@H](CCCCN)C(=O)N[C@@H](Cc1ccccc1)C(=O)N[C@@H](Cc1c[nH]cn1)C(=O)N[C@@H](C)C(=O)N[C@@H](CCCCN)C(=O)N[C@@H](CCCNC(=N)N)C(=O)N[C@@H](Cc1c[nH]cn1)C(=O)N[C@@H](Cc1c[nH]cn1)C(=O)NCC(=O)N[C@@H](Cc1ccc(O)cc1)C(=O)N[C@@H](CCCCN)C(=O)N[C@@H](CCCNC(=N)N)C(=O)N[C@@H](CCCCN)C(=O)N[C@@H](Cc1ccccc1)C(=O)N[C@@H](Cc1c[nH]cn1)C(N)=O` [P-113 Double] (H-AKRHHGYKRKFHAKRHHGYKRKFH-NH2), the “MIC Values, A. Niger” value in the experiment on A. Niger (setting [1]) is 5 ± 1 µM (≈ 15.6 µg/mL). Further, the “MIC Values, A. fumigatus” value in the experiment with A. fumigatus (setting [1]) was 15 ± 5 µM (≈ 46.7 µg/mL). The “MIC Values, E. coli” value against E. coli (setting [2]) was above 200 µM. The “MIC Values, MRSA” value against MRSA (setting [2]) is above 200 µM. Also, the “MIC Values, P. expansum” value with P. expansum (setting [1]) was 9 ± 3 µM (≈ 28 µg/mL).
On to `C[C@H](N)C(=O)N[C@@H](CCCCN)C(=O)N[C@@H](CCCNC(=N)N)C(=O)N[C@@H](CCCCN)C(=O)N[C@@H](CCCCN)C(=O)NCC(=O)N[C@@H](Cc1ccc(O)cc1)C(=O)N[C@@H](CCCCN)C(=O)N[C@@H](CCCNC(=N)N)C(=O)N[C@@H](CCCCN)C(=O)N[C@@H](Cc1ccccc1)C(=O)N[C@@H](CCCCN)C(N)=O` [P-113 H4,5,12K] (H-AKRKKGYKRKFK-NH2), for which the “MIC Values, A. Niger” value in the experiment with A. Niger (setting [1]) turned out to be 14 ± 4 µM (≈ 21.5 µg/mL). Further, the “MIC Values, A. fumigatus” value with A. fumigatus (setting [1]) amounted to 5 ± 1 µM (≈ 7.68 µg/mL). For the same molecule, in the experiment with E. coli (setting [2]), the “MIC Values, E. coli” value was above 200 µM. In addition, in the experiment with MRSA (setting [2]), the “MIC Values, MRSA” value was above 200 µM. The “MIC Values, P. expansum” value in the experiment on P. expansum (setting [1]) is above 200 µM.
`C[C@H](N)C(=O)N[C@@H](CCCCN)C(=O)N[C@@H](CCCNC(=N)N)C(=O)N[C@@H](CCCCN)C(=O)N[C@@H](Cc1c[nH]cn1)C(=O)NCC(=O)N[C@@H](Cc1ccc(O)cc1)C(=O)N[C@@H](CCCCN)C(=O)N[C@@H](CCCNC(=N)N)C(=O)N[C@@H](CCCCN)C(=O)N[C@@H](Cc1ccccc1)C(=O)N[C@@H](Cc1c[nH]cn1)C(N)=O` [P-113 H4K] (H-AKRKHGYKRKFH-NH2): the “MIC Values, A. Niger” value with A. Niger was found to be 14 ± 2 µM (≈ 21.8 µg/mL). Moreover, the “MIC Values, A. fumigatus” value with A. fumigatus was determined as 33 ± 8 µM (≈ 51.3 µg/mL). In addition, the “MIC Values, E. coli” value in the experiment on E. coli (24 h) is above 200 µM. Moreover, in the experiment with MRSA (24 h), the “MIC Values, MRSA” value was above 200 µM. Besides, the “MIC Values, P. expansum” value against P. expansum is above 200 µM.
Regarding `C[C@H](N)C(=O)N[C@@H](CCCCN)C(=O)N[C@@H](CCCNC(=N)N)C(=O)N[C@@H](Cc1c[nH]cn1)C(=O)N[C@@H](Cc1c[nH]cn1)C(=O)NCC(=O)N[C@@H](Cc1ccc(O)cc1)C(=O)N[C@@H](CCCCN)C(=O)N[C@@H](CCCNC(=N)N)C(=O)N[C@@H](CCCCN)C(=O)N[C@@H](Cc1ccccc1)C(=O)N[C@@H](CCCCN)C(N)=O` [P-113 H12K] (H-AKRHHGYKRKFK-NH2), the “MIC Values, A. Niger” value in the experiment on A. Niger (setting [1]) amounted to 17 ± 4 µM (≈ 26.4 µg/mL). Moreover, the “MIC Values, A. fumigatus” value in the experiment with A. fumigatus (setting [1]) turned out to be 4 ± 1 µM (≈ 6.22 µg/mL). Further, the “MIC Values, E. coli” value in the experiment with E. coli (setting [2]) was above 200 µM. Also, the “MIC Values, MRSA” value in the experiment with MRSA (setting [2]) was above 200 µM. The “MIC Values, P. expansum” value against P. expansum (setting [1]) is above 200 µM.
Regarding `C[C@H](N)C(=O)N[C@@H](CCCCN)C(=O)N[C@@H](CCCNC(=N)N)C(=O)N[C@@H](Cc1c[nH]cn1)C(=O)N[C@@H](Cc1c[nH]cn1)C(=O)NCC(=O)N[C@@H](Cc1ccc(O)cc1)C(=O)N[C@@H](CCCCN)C(=O)N[C@@H](CCCNC(=N)N)C(=O)N[C@@H](CCCCN)C(=O)N[C@@H](Cc1ccccc1)C(=O)N[C@@H](Cc1c[nH]cn1)C(N)=O` [P-113, reference compound] (H-AKRHHGYKRKFH-NH2), the “MIC Values, A. Niger” value against A. Niger was 14 ± 2 µM (≈ 21.9 µg/mL). Moreover, the “MIC Values, A. fumigatus” value with A. fumigatus came to 21 ± 4 µM (≈ 32.8 µg/mL). In the experiment on E. coli (24 h), the “MIC Values, E. coli” value was above 200 µM. Moreover, the “MIC Values, MRSA” value against MRSA (24 h) is above 200 µM. In addition, in the experiment on P. expansum, the “MIC Values, P. expansum” value is above 200 µM.
